# Assay results: paper PMC11153716 (Frontiers in Pharmacology, 2024)
# What was measured:
# Assay type in all cases: cell-based
# [1] = target: T1, α1β3γ2L GABAARs (Homo sapiens, UniProt P14867+P18507+P28472); assay: whole-cell patch clamp, potentiation of GABA-induced current
# T1 construct: gene GABRA1; full-length wild-type subunits co-transfected 1:1:1 (plasmid ratio) in HEK293T cells; EGFP from a separate EF1a promoter on the GABRG2 plasmid; with Gamma-aminobutyric acid receptor subunit gamma-2
# [2] = target: T1, α1β3γ2L GABAARs; assay: whole-cell patch clamp, inhibition of GABA-induced current; conditions: 100 μM compound, 1 μM GABA, 15 s pre-treatment, -50 mV, pH 7.4, 22-25 °C
# [3] = target: T1, α1β3γ2L GABAARs; assay: as above; conditions: -50 mV, pH 7.4, 22-25 °C
# [4] = target: T1, α1β3γ2L GABAARs; assay: as above; conditions: -50 mV, pH 7.4, 22-25 °C; remark: listed apart in the source
# T1 sequence (P14867 28-456): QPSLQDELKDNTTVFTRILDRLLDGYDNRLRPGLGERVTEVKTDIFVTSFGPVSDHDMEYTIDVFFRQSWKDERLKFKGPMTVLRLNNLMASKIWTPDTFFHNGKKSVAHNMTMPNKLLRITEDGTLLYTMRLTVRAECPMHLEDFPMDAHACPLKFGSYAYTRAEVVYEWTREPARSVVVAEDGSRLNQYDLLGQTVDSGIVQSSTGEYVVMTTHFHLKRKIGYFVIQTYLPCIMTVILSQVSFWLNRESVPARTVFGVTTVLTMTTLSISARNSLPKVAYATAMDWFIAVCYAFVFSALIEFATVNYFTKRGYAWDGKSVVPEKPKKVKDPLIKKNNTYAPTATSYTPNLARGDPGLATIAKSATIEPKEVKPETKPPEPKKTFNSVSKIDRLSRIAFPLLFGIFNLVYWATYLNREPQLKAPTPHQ
# T1 sequence (P28472 26-473): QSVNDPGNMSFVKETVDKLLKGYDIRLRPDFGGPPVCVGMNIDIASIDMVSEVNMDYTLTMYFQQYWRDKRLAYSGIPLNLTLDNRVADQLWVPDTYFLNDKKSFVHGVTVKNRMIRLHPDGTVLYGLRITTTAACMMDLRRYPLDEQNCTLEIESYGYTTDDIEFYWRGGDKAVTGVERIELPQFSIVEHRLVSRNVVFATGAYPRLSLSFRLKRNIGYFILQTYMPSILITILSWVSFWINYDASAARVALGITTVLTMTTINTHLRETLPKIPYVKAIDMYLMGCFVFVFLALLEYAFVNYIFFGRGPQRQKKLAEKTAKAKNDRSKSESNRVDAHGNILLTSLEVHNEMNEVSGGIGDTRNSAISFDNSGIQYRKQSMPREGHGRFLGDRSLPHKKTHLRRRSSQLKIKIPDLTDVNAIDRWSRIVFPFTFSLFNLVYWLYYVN
# T1 sequence (P18507 40-475): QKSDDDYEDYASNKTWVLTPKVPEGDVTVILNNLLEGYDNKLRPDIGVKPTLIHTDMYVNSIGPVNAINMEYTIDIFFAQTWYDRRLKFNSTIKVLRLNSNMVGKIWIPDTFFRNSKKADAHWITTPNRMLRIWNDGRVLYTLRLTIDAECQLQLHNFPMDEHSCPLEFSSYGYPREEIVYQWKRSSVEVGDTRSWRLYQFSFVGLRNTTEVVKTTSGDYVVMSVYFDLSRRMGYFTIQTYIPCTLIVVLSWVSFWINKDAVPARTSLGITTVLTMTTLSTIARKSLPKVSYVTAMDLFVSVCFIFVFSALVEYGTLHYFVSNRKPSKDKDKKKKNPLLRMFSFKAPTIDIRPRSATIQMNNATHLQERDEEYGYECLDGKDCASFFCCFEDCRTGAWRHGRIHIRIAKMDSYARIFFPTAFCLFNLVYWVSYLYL
compound,measurement,setting,value
Cc1ccc([C@]2(C)CCCC2(C)C)cc1 [(+)-Cuparene],EC50,[1],15.1 ± 5.94 µM
COc1cc2c(cc1OC)C(=O)NCC2 [Corydaldine],"whole-cell patch clamp, inhibition of GABA-induced current",[2],kaempferol and corydaldine suppressed the GABA-induced current by more than half
O=C(O)[C@H](O)Cc1ccc(O)c(O)c1 [Danshensu],I/I0 at 300 μM,[3],0.89 ± 0.02
O=C1c2c(O)cc(O)cc2O[C@H](c2cc(O)c(O)c(O)c2)[C@H]1O [Dihydromyricetin],I/I0 at 100 μM,[4],0.63 ± 0.04
CCOC1O[C@H](CO)[C@@H](O)[C@H](O)[C@H]1O (stereo partly shown) [Ethyl glucoside],EC50,[1],37 ± 8.56 µM
O=c1c(O)c(-c2ccc(O)cc2)oc2cc(O)cc(O)c12 [Kaempferol],"whole-cell patch clamp, inhibition of GABA-induced current",[2],kaempferol and corydaldine suppressed the GABA-induced current by more than half
C=C1CC/C=C(\C)CC[C@@H]2[C@@H]1CC2(C)C [β-Caryophyllene],EC50,[1],46.9 ± 6.33 µM
